Biological target: IRAK4 (Homo sapiens (Human), UniProt Q9NWZ3)
Experiment: IRAK4 Inhibition Assay
Format: biochemical
Settings: ATP 500 μM; IRAK4 0.6 nM
Description: The assays were performed in U-bottom 384-well plates. The final assay volume was 30 μL prepared from 15 μL additions of enzyme and substrates (fluoresceinated peptide and ATP) and test compounds in assay buffer (20 mM HEPES pH 7.2, 10 mM MgCl2, 0.015% Brij 35 and 4 mM DTT). The reaction was initiated by the combination of IRAK4 with substrates and test compounds. The reaction mixture was incubated at room temperature for 60 min. and terminated by adding 45 μL of 35 mM EDTA to each sample. The reaction mixture was analyzed on the Caliper LABCHIP® 3000 (Caliper, Hopkinton, Mass.) by electrophoretic separation of the fluorescent substrate and phosphorylated product. Inhibition data were calculated by comparison to no enzyme control reactions for 100% inhibition and vehicle-only reactions for 0% inhibition. The final concentrations of reagents in the assays are ATP, 500 μM; FL-IPTSPITTTYFFFKKK peptide 1.5 μM; IRAK4, 0.6 nM; and DMSO, 1.6%.

Chain of IRAK4 (Q9NWZ3 whole entry): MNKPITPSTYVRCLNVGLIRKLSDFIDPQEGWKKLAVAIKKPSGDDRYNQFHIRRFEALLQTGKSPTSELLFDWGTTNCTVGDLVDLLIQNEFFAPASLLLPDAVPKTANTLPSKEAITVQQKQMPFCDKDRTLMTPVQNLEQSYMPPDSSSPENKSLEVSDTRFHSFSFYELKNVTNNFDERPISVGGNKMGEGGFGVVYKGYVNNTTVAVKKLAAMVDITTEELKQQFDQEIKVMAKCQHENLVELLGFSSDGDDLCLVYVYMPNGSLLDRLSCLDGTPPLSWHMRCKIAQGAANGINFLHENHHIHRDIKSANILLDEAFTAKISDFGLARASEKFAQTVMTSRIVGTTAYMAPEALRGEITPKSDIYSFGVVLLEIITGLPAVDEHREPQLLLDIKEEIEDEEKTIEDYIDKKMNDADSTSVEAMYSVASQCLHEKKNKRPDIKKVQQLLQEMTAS

Structure (SMILES)	IC50 [nM]
CC(C)Nc1cc(-c2cnn3cc(Cl)cnc23)ncc1C(=O)N[C@H]1CC[C@H](NC(=O)C(C)(C)O)CC1 [Example 78, 6-(6-chloropyrazolo[1,5-a]pyrimidin-3-yl)-N-((1r,4r)-4-(2-hydroxy-2-methylpropanamido)cyclohexyl)-4-(isopropylamino)nicotinamide]	29
COC1CCC(O)(CCNC(=O)c2cnc(-c3cnn4cc(Cl)cnc34)cc2NC2COC2)CC1 (centres unmarked) [Example 79, 6-(6-chloropyrazolo[1,5-a]pyrimidin-3-yl)-N-(2-(1-hydroxy-4-methoxycyclohexyl)ethyl)-4-(oxetan-3-ylamino)nicotinamide]	14
CC[C@H](O)CNc1cc(-c2cnn3cc(Cl)cnc23)ncc1C(=O)NC[C@@H](F)C(C)(C)O [Example 81, 6-(6-chloropyrazolo[1,5-a]pyrimidin-3-yl)-N—((R)-2-fluoro-3-hydroxy-3-methylbutyl)-4-(((S)-2-hydroxybutyl)amino)nicotinamide]	26
CC(C)(O)[C@H](F)CNC(=O)c1cnc(-c2cnn3cc(Cl)cnc23)cc1NC1CCC(F)C1 (stereo partly drawn) [Example 85, 6-(6-chloropyrazolo[1,5-a]pyrimidin-3-yl)-N—((R)-2-fluoro-3-hydroxy-3-methylbutyl)-4-((3-fluorocyclopentyl)amino)nicotinamide]	2
CC(C)(O)[C@H](F)CNC(=O)c1cnc(-c2cnn3cc(Cl)cnc23)cc1NC1CCC(F)C1 (stereo partly drawn) [Example 86, 6-(6-chloropyrazolo[1,5-a]pyrimidin-3-yl)-N—((R)-2-fluoro-3-hydroxy-3-methylbutyl)-4-((3-fluorocyclopentyl)amino)nicotinamide]	4
CNC(=O)[C@H]1CC[C@H](NC(=O)c2cnc(-c3cnn4cc(C#N)cnc34)cc2NC(C)C)CC1 [Example 88, 6-(6-cyanopyrazolo[1,5-a]pyrimidin-3-yl)-4-(isopropylamino)-N-((1r,4r)-4-(methylcarbamoyl)cyclohexyl)nicotinamide]	34
C[C@H](Nc1cc(-c2cnn3cc(C#N)cnc23)ncc1C(=O)NC[C@@H](F)C(C)(C)O)C(C)(C)O [Example 100, 6-(6-cyanopyrazolo[1,5-a]pyrimidin-3-yl)-N—((R)-2-fluoro-3-hydroxy-3-methylbutyl)-4-(((S)-3-hydroxy-3-methylbutan-2-yl)amino)nicotinamide]	94
CNC(=O)[C@H]1CC[C@H](NC(=O)c2cnc(-c3cnn4cc(C#N)cnc34)cc2NCC(C)(C)F)CC1 [Example 102, 6-(6-cyanopyrazolo[1,5-a]pyrimidin-3-yl)-4-((2-fluoro-2-methylpropyl)amino)-N-((1r,4r)-4-(methylcarbamoyl)cyclohexyl)nicotinamide]	80
CC(C)(O)[C@H](F)CNC(=O)c1cnc(-c2cnn3cc(C#N)cnc23)cc1NC1CCCC1O (stereo partly drawn) [Example 103, 6-(6-cyanopyrazolo[1,5-a]pyrimidin-3-yl)-N—((R)-2-fluoro-3-hydroxy-3-methylbutyl)-4-((2-hydroxycyclopentyl)amino)nicotinamide]	44
CC(C)(O)[C@H](F)CNC(=O)c1cnc(C2=C3N=CC(C#N)C=C3N=N2)cc1N[C@@H]1CCCN(C(=O)CC(F)(F)F)C1 (stereo partly drawn) [Example 108, 6-(6-cyano-6H-pyrazolo[4,3-b]pyridin-3-yl)-N—((R)-2-fluoro-3-hydroxy-3-methylbutyl)-4-(((R)-1-(3,3,3-trifluoropropanoyl)piperidin-3-yl)amino)nicotinamide]	67
CC(Nc1cc(-c2cnn3cc(C#N)cnc23)ncc1C(=O)NC[C@@H](F)C(C)(C)O)c1cccnc1 (stereo partly drawn) [Example 113, 6-(6-cyanopyrazolo[1,5-a]pyrimidin-3-yl)-N—((R)-2-fluoro-3-hydroxy-3-methylbutyl)-4-((1-(pyridin-3-yl)ethyl)amino)nicotinamide]	53
CC(C)(O)[C@H](F)CNC(=O)c1cnc(-c2cnn3cc(C#N)cnc23)cc1N[C@@H]1CCN(c2cncnc2)C1 [Example 119, 6-(6-cyanopyrazolo[1,5-a]pyrimidin-3-yl)-N—((R)-2-fluoro-3-hydroxy-3-methylbutyl)-4-(((R)-1-(pyrimidin-5-yl)pyrrolidin-3-yl)amino)nicotinamide]	9
CC(C)(O)[C@H](F)CNC(=O)c1cnc(-c2cnn3cc(C#N)cnc23)cc1NCC1(O)COC1 [Example 121, (R)-6-(6-cyanopyrazolo[1,5-a]pyrimidin-3-yl)-N-(2-fluoro-3-hydroxy-3-methylbutyl)-4-(((3-hydroxyoxetan-3-yl)methyl)amino)nicotinamide]	52
CO[C@H]1CC[C@H](NC(=O)c2cnc(-c3cnn4cc(C#N)cnc34)cc2NC2COC2)CC1 [Example 124, 6-(6-cyanopyrazolo[1,5-a]pyrimidin-3-yl)-N-((1r,4r)-4-methoxycyclohexyl)-4-(oxetan-3-ylamino)nicotinamide]	12
CC[C@H](O)CNc1cc(-c2cnn3cc(C#N)cnc23)ncc1C(=O)NC[C@@H](F)C(C)(C)O [Example 125, 6-(6-cyanopyrazolo[1,5-a]pyrimidin-3-yl)-N—((R)-2-fluoro-3-hydroxy-3-methylbutyl)-4-(((S)-2-hydroxybutyl)amino)nicotinamide]	56
CC(C)(O)[C@H](F)CNC(=O)c1cnc(-c2cnn3cccnc23)cc1NC1CCOCC1 [Example 126, (R)—N-(2-fluoro-3-hydroxy-3-methylbutyl)-6-(pyrazolo[1,5-a]pyrimidin-3-yl)-4-((tetrahydro-2H-pyran-4-yl)amino)nicotinamide]	22
CC(C)Nc1cc(-c2cnn3cccnc23)ncc1C(=O)NC[C@@H](F)C(C)(C)O [Example 127, (R)—N-(2-fluoro-3-hydroxy-3-methylbutyl)-4-(isopropylamino)-6-(pyrazolo[1,5-a]pyrimidin-3-yl)nicotinamide]	81
CC(C)Nc1cc(-c2cnn3cc(C4CC4)cnc23)ncc1C(=O)NC[C@@H](F)C(C)(C)O [Example 128, (R)-6-(6-cyclopropylpyrazolo[1,5-a]pyrimidin-3-yl)-N-(2-fluoro-3-hydroxy-3-methylbutyl)-4-(isopropylamino)nicotinamide]	75
CC(C)Nc1cc(-c2cnn3cc(F)c(N)nc23)ncc1C(=O)NC[C@@H](F)C(C)(C)O [Example 129, (R)-6-(5-amino-6-fluoropyrazolo[1,5-a]pyrimidin-3-yl)-N-(2-fluoro-3-hydroxy-3-methylbutyl)-4-(isopropylamino)nicotinamide]	3
CC(C)(O)[C@H](F)CNC(=O)c1cnc(-c2cnc3cccnn23)cc1NC1COC1 [Example 131, (R)—N-(2-fluoro-3-hydroxy-3-methylbutyl)-6-(imidazo[1,2-b]pyridazin-3-yl)-4-(oxetan-3-ylamino)nicotinamide]	13
CC(C)(O)[C@H](F)CNC(=O)c1cnc(-c2cnc3cccnn23)cc1NC1CCOCC1 [Example 132, (R)—N-(2-fluoro-3-hydroxy-3-methylbutyl)-6-(imidazo[1,2-b]pyridazin-3-yl)-4-((tetrahydro-2H-pyran-4-yl)amino)nicotinamide]	9
CC(C)(O)[C@H]1CC[C@H](NC(=O)c2cnc(-c3cnc4cccnn34)cc2NC2COC2)CC1 [Example 133, N-((1r,4r)-4-(2-hydroxypropan-2-yl)cyclohexyl)-6-(imidazo[1,2-b]pyridazin-3-yl)-4-(oxetan-3-ylamino)nicotinamide]	36
C[C@@H](CO)Nc1cc(-c2cnc3cccnn23)ncc1C(=O)NC[C@@H](F)C(C)(C)O [Example 136, N—((R)-2-fluoro-3-hydroxy-3-methylbutyl)-4-(((S)-1-hydroxypropan-2-yl)amino)-6-(imidazo[1,2-b]pyridazin-3-yl)nicotinamide]	19
C[C@@H](CO)Nc1cc(-c2cnc3cccnn23)ncc1C(=O)NCCC(C)(C)O [Example 137, (S)—N-(3-hydroxy-3-methylbutyl)-4-((1-hydroxypropan-2-yl)amino)-6-(imidazo[1,2-b]pyridazin-3-yl)nicotinamide]	75
CC(C)(O)CNc1cc(-c2cnc3cccnn23)ncc1C(=O)NC[C@@H](F)C(C)(C)O [Example 138, (R)—N-(2-fluoro-3-hydroxy-3-methylbutyl)-4-((2-hydroxy-2-methylpropyl)amino)-6-(imidazo[1,2-b]pyridazin-3-yl)nicotinamide]	62
CC(C)Nc1cc(-c2cnc3ccc(NCCO)nn23)ncc1C(=O)NC[C@@H](F)C(C)(C)O [Example 139, (R)—N-(2-fluoro-3-hydroxy-3-methylbutyl)-6-(6-((2-hydroxyethyl)amino)imidazo[1,2-b]pyridazin-3-yl)-4-(isopropylamino)nicotinamide]	3
CC(C)(O)[C@H](F)CNC(=O)c1cnc(-c2cnc3ccc(NCCO)nn23)cc1NC1COC1 [Example 140, (R)—N-(2-fluoro-3-hydroxy-3-methylbutyl)-6-(6-((2-hydroxyethyl)amino)imidazo[1,2-b]pyridazin-3-yl)-4-(oxetan-3-ylamino)nicotinamide]	6
COc1ccc2ncc(-c3cc(NC(C)C)c(C(=O)NC[C@@H](F)C(C)(C)O)cn3)n2n1 [Example 149, (R)—N-(2-fluoro-3-hydroxy-3-methylbutyl)-4-(isopropylamino)-6-(6-methoxyimidazo[1,2-b]pyridazin-3-yl) nicotinamide]	18
CC(C)Nc1cc(-c2cnc3ccc(N)nn23)ncc1C(=O)NC[C@@H](F)C(C)(C)O [Example 150, (R)-6-(6-aminoimidazo[1,2-b]pyridazin-3-yl)-N-(2-fluoro-3-hydroxy-3-methylbutyl)-4-(isopropylamino)nicotinamide]	12
